Source: patent US20250163119A1, “COMPOUNDS FOR THE TREATMENT OF DIABETES OR OBESITY” (Eli Lilly and Company, priority 2023, published 2025)
*1 amine or outer side, *2 acyl side, *3 side chain or, on linkers, in order; H or OH if unused. Where a SMILES comes first, the peptide text is derived from it. Side-chain parts run from the residue outwards. [ ]: non-standard residue; d: D form. The star is where a group is joined. C20 diacid = O=C(O)CCCCCCCCCCCCCCCCCCC(=O)*; γGlu = O=C(O)[C@H](CCC(=O)[*:2])N[*:1]; NMeI = CC[C@H](C)[C@H](NC)C(=O)O; AEEA = NCCOCCOCC(=O)O

Assay: Association state determination by Sedimentation Velocity Analytical UltraCentrifugation (SV-AUC)
Format: physicochemical
Experimental: SV-AUC was performed at 20° C. using a Beckman Optima with AN 60 Ti rotor and final rotor speed of 60,000 rpm. Peptides were dialyzed into 5 mM phosphate pH 7 or 1× phosphate buffered saline (PBS) pH 7.2. Samples were adjusted to the desired concentration (0.1 mg/mL, 1 mg/mL, or 10 mg/mL) using relevant buffer as needed. Both samples and buffer were passed through […] PVDF centrifugal filter units. The filtered samples were loaded into the sample sectors of the cells; filtered buffer alone was loaded in the reference sector of the cells. A Wavelength Scan was performed as the first step to choose a suitable lambda […] value for the given compound with 1-1.2 OD at the concentration(s) tested; this value was generally between 225 nm and 254 nm and used for Method Scan in the next step. In the Method Scan, both absorbance and interference detection modules were used. Temperature equilibration was set as first stage with 0 rpm rotor speed for 3 hours. Sedimentation velocity was set as second stage with rotor speed at 60,000 rpm. 300 scans with frequency of 60 seconds or 500 scan counts with frequency of 120 seconds were performed at the designated wavelength. Data were analyzed with SEDFIT software wherein a continuous c(s) distribution model was applied; the setting of relevant parameters is shown in Table 4 and Table 5; sedimentation coefficient (s) values were reported in Svedherg units (S).
The experiment to characterize a compound comprising SEQ ID NO:54 was performed at 300 scan counts with frequency of 60 seconds; for all other tested polypeptides, the experiments were performed at 500 scan counts with frequency of 120 seconds.

[1] = 0.1 mg/mL, 1x PBS, pH 7.2, 20° C.

Mw (SEDFIT), apparent molecular weight [1]: 38787 Da | Sedimentation Coefficient [1]: 3.5 S | Sedimentation Coefficient species (% of total) [1]: 89%
Structure (SMILES): CC[C@H](C)[C@H](NC)C(=O)N[C@H](C(=O)N[C@@H](CC(C)C)C(=O)N[C@@H](CO)C(=O)N[C@@H](CC(C)C)C(=O)N[C@@H](CC(=O)O)C(=O)N[C@H](C(=O)N1CCC[C@H]1C(=O)N[C@H](C(=O)NCC(=O)N[C@@H](CC(C)C)C(=O)N[C@@H](CC(C)C)C(=O)N[C@@H](CCC(N)=O)C(=O)N[C@H](C(=O)N[C@@H](CC(C)C)C(=O)N[C@@H](CC(C)C)C(=O)N[C@@H](CCC(=O)O)C(=O)N[C@@H](CCC(N)=O)C(=O)N[C@@H](CCC(=O)O)C(=O)N[C@@H](CCCCN)C(=O)N[C@@H](CCC(N)=O)C(=O)N[C@@H](CCC(=O)O)C(=O)N[C@@H](CCCCN)C(=O)N[C@@H](CCC(=O)O)C(=O)N[C@@H](CCCCN)C(=O)N[C@@H](CCC(N)=O)C(=O)N[C@@H](CCC(N)=O)C(=O)N[C@@H](C)C(=O)N[C@@H](CCCCNC(=O)COCCOCCNC(=O)COCCOCCNC(=O)CC[C@H](NC(=O)CC[C@H](NC(=O)CCCCCCCCCCCCCCCCCCC(=O)O)C(=O)O)C(=O)O)C(=O)N[C@H](C(=O)N[C@@H](CC(N)=O)C(=O)N[C@@H](C)C(=O)N[C@@H](CCC(N)=O)C(=O)N[C@H](C(=O)N[C@@H](CC(C)C)C(=O)N[C@@H](C)C(=O)N[C@@H](CCC(N)=O)C(=O)N[C@H](C(N)=O)C(C)C)[C@@H](C)CC)[C@@H](C)O)[C@@H](C)CC)[C@@H](C)CC)C(C)C)C(C)C [SEQ ID NO: 54] (H-[NMeI]VLSLDVPIGLLQILLEQEKQEKEKQQAK([AEEA-AEEA-γGlu-γGlu-C20 diacid])TNAQILAQV-NH2)
self-association state from sedimentation coefficients (0.1, 1 and 10 mg/mL for SEQ ID NO:54): higher order oligomers were the major species
